SMILES | melting point
COCCCOc1cccc(CN(C)c2nc(=O)c3c(C)c(OC)c(OC)cc3[nH]2)c1 [Example 162, 6,7-Dimethoxy-2-{[3-(3-methoxy-propoxy)-benzyl]-methyl-amino}-5-methyl-1H-quinazolin-4-one] | 150.1 to 152 °C
COc1cc2[nH]c(N(C)Cc3cccc(OCCN(C)C)c3)nc(=O)c2c(C)c1OC [Example 164, 2-{[3-(2-Dimethylamino-ethoxy)-benzyl]-methyl-amino}-6,7-dimethoxy-5-methyl-1H-quinazolin-4-one] | 137.9 to 141.9 °C
CCNCCOc1cccc(CN(C)c2nc(=O)c3c(C)c(OC)c(OC)cc3[nH]2)c1 [Example 165, 2-{[3-(2-Ethylamino-ethoxy)-benzyl]-methyl-amino}-6,7-dimethoxy-5-methyl-1H-quinazolin-4-one] | 264.6 to 266.5 °C
COc1cc2[nH]c(N(C)Cc3cccc(/N=C(\C)N(C)C)c3)nc(=O)c2c(C)c1OC [Example 167, N′-(3-{[(6,7-Dimethoxy-5-methyl-4-oxo-1,4-dihydro-quinazolin-2-yl)-methyl-amino]-methyl}-phenyl)-N,N-dimethyl-acetamide] | 174.4 to 174.8 °C
COc1cc2[nH]c(N(C)Cc3cccc(NS(=O)(=O)N(C)C)c3)nc(=O)c2c(C)c1OC [Example 169, N′-(3-{[(6,7-dimethoxy-5-methyl-4-oxo-1,4-dihydro-quinazolin-2-yl)-methyl-amino]-methyl}-phenyl)-N,N-dimethylsulfamide] | 195.3 to 199 °C
COc1cc2[nH]c(N(C)Cc3cccc(N(C)S(=O)(=O)N(C)C)c3)nc(=O)c2c(C)c1OC [Example 170, N-(3-{[(6,7-dimethoxy-5-methyl-4-oxo-1,4-dihydro-quinazolin-2-yl)-methyl-amino]-methyl}-phenyl)-N,N′,N′-trimethylsulfamide] | 160 to 161.7 °C
COc1cc2[nH]c(N(C)Cc3cccc(NS(=O)(=O)N(C)C)c3)nc(=O)c2c(OC)c1OC [Example 171, N,N-Dimethyl-N′-(3-{[methyl-(5,6,7-trimethoxy-4-oxo-1,4-dihydro-quinazolin-2-yl)-amino]-methyl}-phenyl)-sulfamide] | 176.5 to 179.7 °C
COc1cc2[nH]c(N(C)Cc3cccc(N(C)S(=O)(=O)N(C)C)c3)nc(=O)c2c(OC)c1OC [Example 172, N,N,N′-Trimethyl-N′-(3-{[methyl-(5,6,7-trimethoxy-4-oxo-1,4-dihydro-quinazolin-2-yl)-amino]-methyl}-phenyl)-sulfamide] | 170.3 to 172.3 °C
COC(=O)Nc1cccc(CN(C)c2nc(=O)c3c(OC)c(OC)c(OC)cc3[nH]2)c1 [Example 177, (3-{[Methyl-(5,6,7-trimethoxy-4-oxo-1,4-dihydro-quinazolin-2-yl)-amino]-methyl}-phenyl)-carbamic acid methylester] | 230.9 to 232.1 °C
COC(=O)N(C)c1cccc(CN(C)c2nc(=O)c3c(C)c(OC)c(OC)cc3[nH]2)c1 [Example 178, (3-{[(6,7-Dimethoxy-5-methyl-4-oxo-1,4-dihydro-quinazolin-2-yl)-methyl-amino]-methyl}-phenyl)-methyl-carbamic acid methyl ester] | 191.9 to 194.1 °C
COc1cc2[nH]c(N(C)Cc3cccc(NC(=O)N(C)C)c3)nc(=O)c2c(C)c1OC [Example 180, 3-(3-{[(6,7-Dimethoxy-5-methyl-4-oxo-1,4-dihydro-quinazolin-2-yl)-methyl-amino]-methyl}-phenyl)-1,1-dimethyl-urea] | 131.5 to 168 °C
CONC(=O)Nc1cccc(CN(C)c2nc(=O)c3c(OC)c(OC)c(OC)cc3[nH]2)c1 [Example 181, N-Methoxy-N′-(3-{[methyl-(5,6,7-trimethoxy-4-oxo-1,4-dihydro-quinazolin-2-yl)-amino]-methyl-}-phenyl)-urea] | 165 to 167 °C
COc1cc2[nH]c(N(C)Cc3cccc(NCCO)c3)nc(=O)c2c(OC)c1OC [Example 182, 2-{[3-(2-Hydroxy-ethylamino)-benzyl]-methyl-amino}-5,6,7-trimethoxy-1H-quinazolin-4-one] | 60.5 to 61.5 °C
COc1cc2[nH]c(N(C)Cc3cccc(N(CCO)CCO)c3)nc(=O)c2c(OC)c1OC [Example 190, 2-({3-[Bis(2-hydroxy-ethyl)-amino]-bewnzyl}-methyl-amino)-5,6,7-trimethoxy-1H-quinazolin-4-one] | 138.1 to 141 °C
COc1cc2[nH]c(N(C)C(C)c3cccc(NCCNC(C)=O)c3)nc(=O)c2c(C)c1OC (stereo not drawn) [Example 191, N-[2-(3-{1-[(6,7-Dimethoxy-5-methyl-4-oxo-1,4-dihydro-quinazolin-2-yl)-methyl-amino]-ethyl}-phenylamino)-ethyl]-acetamide] | 220.6 to 222.4 °C
C/N=C(/C)N(C)c1cccc(CN(C)c2nc(=O)c3c(C)c(OC)c(OC)cc3[nH]2)c1 [Example 194] | 181.2 to 186.6 °C
CN/C(C)=N/c1cccc(CN(C)c2nc(=O)c3c(C)c(OC)c(OC)cc3[nH]2)c1 [Example 195, N-(3-{[(6,7-Dimethoxy-5-methyl-4-oxo-1,4-dihydro-quinazolin-2-yl)-methyl-amino]-methyl}-phenyl)-N′-methyl-acetamide] | 233.1 to 233.9 °C
COc1cc2[nH]c(N(C)Cc3cccc(/N=C/N(C)C)c3)nc(=O)c2c(C)c1OC [Example 196] | 185 to 186 °C
COc1cc2[nH]c(N(C)Cc3cccc(/N=C(/C)N(C)C)c3)nc(=O)c2c(OC)c1OC [Example 197, N,N-Dimethyl-N′-(3-{[methyl-(5,6,7-trimethoxy-4-oxo-1,4-dihydro-quinazolin-2-yl)-amino]-methyl}-phenyl)acetamidine] | 199 to 201 °C
COc1cc2[nH]c(N(C)Cc3cccc(/N=C(\C(C)C)N(C)C)c3)nc(=O)c2c(OC)c1OC [Example 198, N,N-Dimethyl-N′-(3-{[methyl-(5,6,7-trimethoxy-4-oxo-1,4-dihydro-quinazolin-2-yl)-amino]-methyl}-phenyl)-isobutyramidine] | 148 to 150 °C
CCc1c(OC)c(OC)cc2[nH]c(N(C)Cc3cccc(/N=C(\C)N(C)C)c3)nc(=O)c12 [Example 199, N′-(3-{[(5-Ethyl-6,7-dimethoxy-4-oxo-1,4-dihydro-quinazolin-2-yl)-methyl-amino]-methyl}-phenyl)-N,N-dimethyl-acetamidine] | 224.6 to 225.5 °C
COc1cc2[nH]c(N(C)Cc3cccc(/N=C(\C4CCC4)N(C)C)c3)nc(=O)c2c(OC)c1OC [Example 203, N,N-Dimethyl-N′-(3-{[methyl-(5,6,7-trimethoxy-4-oxo-11,4-dihydro-quinazolin-2-yl)-amino]-methyl}-phenyl)-cyclobutanecarboxamidine] | 164.2 to 165.7 °C
COc1cc2[nH]c(N(C)Cc3cccc(/N=C4/CCCN4C)c3)nc(=O)c2c(OC)c1OC [Example 205, 5,6,7-Trimethoxy-2-(methyl-{3-[1-methyl-pyrrolidin-(2Z)-ylideneamino]-benzyl}-amino)-1H-quinazolin-4-one] | 130 to 133 °C
COc1cc2[nH]c(N(C)Cc3cc(N(C)C4=NCCC4)ccc3F)nc(=O)c2c(O)c1OC [Example 211, 2-({-[(4,5-Dihydro-3H-pyrrol-2-yl)-methyl-amino]-2-fluoro-benzyl}-methylamino)-5-hydroxy-6,7-dimethoxy-1H-quinazolin-4-one] | 264.9 to 267 °C

From patent US7244738B2, “Arylamine-substituted quinazolinone compounds useful as alpha 1A/B adrenergic receptor antagonists” (Roche Palo Alto LLC, priority 2003, dated 2007)
